Reference: patent US20100260825A1, “Antifolates for the treatment of cardiovascular, inflammatory, neoplastic, autoimmune and related diseases in sublingual dosage units, film strips, or skin patches” (priority 2009, published 2010)

Key:
[1] = test system: patients with rheumatoid arthritis; experiment: Clinical trial of M-Trex (Mobiletrex) in patients with rheumatoid arthritis, relative to methotrexate; type: in vivo, human; set-up: CRP: unit not given here; conditions: for CRP: plasma C-Reactive Protein
Excerpt: In 2002; Castaneda and M. Gopal Nair conducted the clinical trial of a metabolism-blocked antifolate Mobileterx in patients with rheumatoid arthritis to evaluate its efficacy relative to the well-known antifolate drug methotrexate. In this pilot study [O. Castaneda and M. Gopal Nair. [The J. Rheumatology.

CCRF-CEM = experiment: Growth inhibition of human tumor cells in culture, CCRF-CEM (Leukemia); type: cell-based
Excerpt: (§1) The preceding data summarize the ability of compound 2 to inhibit 50% of the growth of selected tumor cells in culture. The values are expressed as Log10 GI50 values all of which are lower than 10^−8 M. In the same table a comparison is made of the respective values of TGI (Total Growth Inhibition) for 2 and methotrexate.

MOLT-4 = experiment: Growth inhibition of human tumor cells in culture, MOLT-4 (Leukemia); type: cell-based
Excerpt: as §1

RPMI 8226 = experiment: Growth inhibition of human tumor cells in culture, RPMI 8226 (Leukemia); type: cell-based
Excerpt: as §1

SR = experiment: Growth inhibition of human tumor cells in culture, SR (Leukemia); type: cell-based
Excerpt: as §1

K562 = experiment: Growth inhibition of human tumor cells in culture, K562 (Leukemia); type: cell-based
Excerpt: as §1

MCF-7 = experiment: Growth inhibition of human tumor cells in culture, MCF-7 (Breast Cancer); type: cell-based
Excerpt: as §1

MCF7-ADR-RES = experiment: Growth inhibition of human tumor cells in culture, MCF7-ADR-RES (Breast Cancer); type: cell-based
Excerpt: as §1

SF 539 = experiment: Growth inhibition of human tumor cells in culture, SF 539 (CNS Cancer); type: cell-based
[2] = test system: selected tumor cells in culture; experiment: Growth inhibition of selected tumor cells in culture (summary); type: cell-based, Human; conditions: all selected tumor cell lines of the table; read-out: GI50 (inhibit 50% of the growth)
Excerpt: as §1

[3] = test system: Human HCT-8 Colon Xenograft; experiment: Antitumor activity in nude mice bearing human HCT-8 colon xenograft; type: in vivo; conditions: i.v. push daily × 5
[4] = Toxicity (maximum tolerated dose), i.v. push daily × 5 in nude mice; type: in vivo; conditions: i.v. push daily × 5, nude mice bearing HCT-8 xenograft
[5] = Bioavailability / absorption of oral methotrexate in patients; type: in vivo, human; conditions: oral dosage form, group of arthritic patients (Example-2)
[6] = test system: patients with rheumatoid arthritis; experiment: Conventional therapy of rheumatoid arthritis with methotrexate in patients; type: in vivo, human
[7] = oral dosage form; cited from earlier work
[8] = cited from earlier work
aldehyde oxidase = conditions: cited from earlier work
[9] = cited from earlier work; remark: listed apart in the source
[10] = Hypothetical ADMEP and Phase-I-II study of compound 1 (Example-3); type: in vivo, humans; conditions: 1.5 mg from the gut to the plasma three times a day (4.5 mg/24 hours)
Protocol: Based on ADMEP (Absorption, Distribution, Metabolism, Excretion, Pharmacokinetics) studies conducted with analogous compound 1 in animals and humans during pre-clinical investigations and Phase-I-II clinical trials it was determined that an absorption of 1.0 mg of the drug from the gut to plasma three times a day from divided oral dosage units is optimal (3.0 mg/24 hours) in treating the antifolate responsive disease without causing significant toxicity. […] The bioavailability of this drug from the oral dosage unit used was only 10 percent as determined from a Phase-I clinical trial in healthy volunteers. […] The Bioavailability of this new medication was pH dependent due to solubility reasons and therefore it was possible that fluctuations in bioavailability might occur in certain patients as described in example-2. Thus in certain patients taking antacids or drugs such as certain prostaglandin to reduce acid secretion or other unknown factors the pH of the gut might increase to enhance the solubility and thereby increasing the bio-availability to the 15 to 20% range.

C=C(CC(NC(=O)c1ccc(CCc2ccc3nc(N)nc(N)c3c2)cc1)C(=O)O)C(=O)O (stereo not shown) [Compound 2]
ESR ([1]; 4 wks): 52.7 | HAQ ([1]; 4 wks): 1.8 | Pa. GA ([1]; 4 wks): 6.0 | Ph. GA ([1]; 4 wks): 6.2 | S. Joints ([1]; 4 wks): 5.6 | T. Joints ([1]; 4 wks): 10.2 | Pain ([1]; 4 wks of treatment, rheumatoid arthritis patients): 4.1 | CRP ([1]; 4 wks): 22.1 | ESR ([1]; 8 wks): 32.7 | HAQ ([1]; 8 wks): 1.6 | Pa. GA ([1]; 8 wks): 6.0 | Pain ([1]; 8 wks): 2.8 | Ph. GA ([1]; 8 wks): 5.0 | S. Joints ([1]; 8 wks): 3.5 | T. Joints ([1]; 8 wks): 7.3 | CRP ([1]; 8 wks): 20.7 | ESR ([1]; 12 wks): 38.3 | HAQ ([1]; 12 wks): 1.4 | Pa. GA ([1]; 12 wks): 5.0 | Pain ([1]; 12 wks): 2.2 | Ph. GA ([1]; 12 wks): 4.5 | S. Joints ([1]; 12 wks): 3.0 | T. Joints ([1]; 12 wks): 5.8 | CRP ([1]; 12 wks): 17.7 | ESR ([1]; 16 wks): 38.6 | HAQ ([1]; 16 wks): 1.4 | Pa. GA ([1]; 16 wks): 3.0 | Pain ([1]; 16 wks): 1.8 | Ph. GA ([1]; 16 wks): 3.0 | S. Joints ([1]; 16 wks): 2.9 | T. Joints ([1]; 16 wks): 5.8 | CRP ([1]; 16 wks): 13.6 | plasma concentration of C-Reactive Protein (CRP) ([1]; as the treatment progressed): consistently decreased | TGI (Total Growth Inhibition) (CCRF-CEM): <−8.00 | Log10 GI50 (CCRF-CEM; Log10 of molar concentration): <−8.00 | TGI (Total Growth Inhibition) (MOLT-4): −7.40 | Log10 GI50 (MOLT-4; Log10 of molar concentration): <−8.00 | TGI (Total Growth Inhibition) (RPMI 8226): −7.44 | Log10 GI50 (RPMI 8226; Log10 of molar concentration): <−8.00 | TGI (Total Growth Inhibition) (SR): <−8.00 | Log10 GI50 (SR; Log10 of molar concentration): <−8.00 | TGI (Total Growth Inhibition) (K562): <−8.00 | Log10 GI50 (K562; Log10 of molar concentration): <−8.00 | TGI (Total Growth Inhibition) (MCF-7): −6.32 | Log10 GI50 (MCF-7; Log10 of molar concentration): <−8.00 | TGI (Total Growth Inhibition) (MCF7-ADR-RES): −7.26 | Log10 GI50 (MCF7-ADR-RES; Log10 of molar concentration): <−8.00 | TGI (Total Growth Inhibition) (SF 539): −6.3 | Log10 GI50 (SF 539; Log10 of molar concentration): <−8.00 | GI50 [2]: < 10 nM | MTGI (%) Maximum Tumor Growth Inhibition (% of control) ([3]; 4.0 mg/kg/day (MTD)): 91.4 ± 2.2% | T/C % ([3]; 4.0 mg/kg/day (MTD)): 623.08% | TD (days) Tumor Doubling Time ([3]; 4.0 mg/kg/day (MTD)): 16.2 ± 3.2 days | Maximum Tolerated dose [4]: M-Trex (4.0 mg/kg/day)

CN(Cc1cnc2nc(N)nc(N)c2n1)c1ccc(C(=O)N[C@@H](CCC(=O)O)C(=O)O)cc1 [Methotrexate, reference compound]
TGI (Total Growth Inhibition) (CCRF-CEM): −3.77 | TGI (Total Growth Inhibition) (MOLT-4): −3.55 | TGI (Total Growth Inhibition) (RPMI 8226): −3.66 | TGI (Total Growth Inhibition) (SR): −3.50 | TGI (Total Growth Inhibition) (K562): −3.30 | TGI (Total Growth Inhibition) (SF 539): −3.66 | MTGI (%) Maximum Tumor Growth Inhibition (% of control) ([3]; 1.0 mg/kg/day (MTD)): 30.0 ± 9.0% | T/C % ([3]; 1.0 mg/kg/day (MTD)): 176.92% | TD (days) Tumor Doubling Time ([3]; 1.0 mg/kg/day (MTD)): 4.6 ± 0.6 days | MTD at 5 days ([4]; mouse, in vivo, iv): 1 mg/kg/day | absorption [5]: 20% | non-responders ([6]; certain patient populations): up to 40% | drug related toxicity ([6]; some patients): significant drug related toxicity including elevation of liver enzymes | bioavailability [7]: 20-80% | adverse effects of overdose ([8]; 60 mg weekly instead of 15 mg weekly, oral tablets, rheumatoid arthritis patient): odynophagia, dysphagia and oesophagitis | adverse effects of dosing error ([8]; weekly dose taken in error daily or on several days each week): severe unwanted effects, including neutropenia, hepatotoxicity and bone marrow suppression | aldehyde oxidase mediated oxidative deactivation (aldehyde oxidase): efficiently converted to its corresponding 7-hydroxymethotrexate | solubility [9]: pH dependent

C=C(CC(NC(=O)c1ccc(CCc2ccc3nc(N)nc(N)c3c2)cc1)C(=O)O)C(=O)O (stereo not shown) [Compound 1, 4′-Methylene-5,8,10-trideazaaminopterin]
toxicity [10]: unacceptable GI and bone marrow toxicity
